From ChEMBL document CHEMBL1150036, “Functionalized aliphatic P2/P2 analogs of HIV-1 protease inhibitor DMP323” (Bioorg Med Chem Lett, 1997)
Active and inactive are the calls of the source. The rule behind the calls is not given here.

Experiments:
[1] = target: Human immunodeficiency virus type 1 protease (Human immunodeficiency virus 1, UniProt Q72874); assay: Inhibitory activity against HIV-1 protease
MT2 = assay: Antiviral activity assessed in a cell based assay measuring the inhibition of viral RNA production in HIV-1-infected MT-2 cells at concentrations of up to 50 ug/mL; not active; assay type: functional; conditions: Homo sapiens
[2] = test system: Human immunodeficiency virus 1; assay: Inhibition of viral RNA production in HIV-1-infected MT-2 cells.; assay type: functional; conditions: Human immunodeficiency virus 1, MT2

| IC90 [2] | Compound | Ki [1] | IC90 (MT2) |
| --- | --- | --- | --- |
| – | CNC(=O)NCCCCCN1C(=O)N(CCCCCNC(=O)NC)[C@H](Cc2ccccc2)[C@H](O)[C@@H](O)[C@H]1Cc1ccccc1 | 270 nM | inactive |
| 264 nM | O=C1N(CCCCCCO)[C@H](Cc2ccccc2)[C@H](O)[C@@H](O)[C@@H](Cc2ccccc2)N1Cc1ccc2ccccc2c1 | 1.7 nM | – |
| – | O=C(NCCCCCN1C(=O)N(CCCCCNC(=O)c2ccc(F)cc2)[C@H](Cc2ccccc2)[C@H](O)[C@@H](O)[C@H]1Cc1ccccc1)c1ccc(F)cc1 | 18 nM | inactive |
| 3130 nM | O=C(Cc1cccnc1)NCCCCCN1C(=O)N(CCCCCNC(=O)Cc2cccnc2)[C@H](Cc2ccccc2)[C@H](O)[C@@H](O)[C@H]1Cc1ccccc1 | 8.9 nM | – |
| 398 nM | O=C1N(CCCCCO)[C@H](Cc2ccccc2)[C@H](O)[C@@H](O)[C@@H](Cc2ccccc2)N1Cc1ccccc1 | 0.68 nM | – |
| 1510 nM | O=C1N(CCCCCCO)[C@H](Cc2ccccc2)[C@H](O)[C@@H](O)[C@@H](Cc2ccccc2)N1CCCCCCO | 0.47 nM | – |
| 365 nM | CCOC(=O)c1cccc(CN2C(=O)N(CCCCCO)[C@H](Cc3ccccc3)[C@H](O)[C@@H](O)[C@H]2Cc2ccccc2)c1 | 0.72 nM | – |
| 36 nM | O=C1N(CCCCCO)[C@H](Cc2ccccc2)[C@H](O)[C@@H](O)[C@@H](Cc2ccccc2)N1Cc1cccc(O)c1 | 0.081 nM | – |
| 108 nM | O=C1N(CCCCCO)[C@H](Cc2ccccc2)[C@H](O)[C@@H](O)[C@@H](Cc2ccccc2)N1Cc1ccc(CO)cc1 | 0.1 nM | – |
| – | CC(=O)NCCCCCN1C(=O)N(CCCCCNC(C)=O)[C@H](Cc2ccccc2)[C@H](O)[C@@H](O)[C@H]1Cc1ccccc1 | 350 nM | inactive |
| – | O=C1N(CCCO)[C@H](Cc2ccccc2)[C@H](O)[C@@H](O)[C@@H](Cc2ccccc2)N1CCCO | 51 nM | inactive |
| – | NCCCCN1C(=O)N(CCCCN)[C@H](Cc2ccccc2)[C@H](O)[C@@H](O)[C@H]1Cc1ccccc1 | 1250 nM | inactive |
| – | O=C(NCCCCCN1C(=O)N(CCCCCNC(=O)c2ccccc2)[C@H](Cc2ccccc2)[C@H](O)[C@@H](O)[C@H]1Cc1ccccc1)c1ccccc1 | 59 nM | inactive |
| 199 nM | O=C1N(CCCCCO)[C@H](Cc2ccccc2)[C@H](O)[C@@H](O)[C@@H](Cc2ccccc2)N1Cc1ccc2ccccc2c1 | 0.24 nM | – |
| – | COCCCCCN1C(=O)N(CCCCCOC)[C@H](Cc2ccccc2)[C@H](O)[C@@H](O)[C@H]1Cc1ccccc1 | 96 nM | inactive |
| – | O=C(O)CCCCCN1C(=O)N(CCCCCC(=O)O)[C@H](Cc2ccccc2)[C@H](O)[C@@H](O)[C@H]1Cc1ccccc1 | 0.24 nM | inactive |
| – | NCCCCCN1C(=O)N(CCCCCN)[C@H](Cc2ccccc2)[C@H](O)[C@@H](O)[C@H]1Cc1ccccc1 | 1250 nM | inactive |
| – | CS(=O)(=O)NCCCCCN1C(=O)N(CCCCCNS(C)(=O)=O)[C@H](Cc2ccccc2)[C@H](O)[C@@H](O)[C@H]1Cc1ccccc1 | 270 nM | inactive |
| 17200 nM | O=C1N(CCCCCCCCO)[C@H](Cc2ccccc2)[C@H](O)[C@@H](O)[C@@H](Cc2ccccc2)N1CCCCCCCCO | 500 nM | – |
| 76 nM | O=C1N(CCCCCO)[C@H](Cc2ccccc2)[C@H](O)[C@@H](O)[C@@H](Cc2ccccc2)N1Cc1cccc(CO)c1 | 0.058 nM | – |

| Compound | IC90 [2] | Ki [1] | IC90 (MT2) |
| --- | --- | --- | --- |
| O=C(NCCCCCN1C(=O)N(CCCCCNC(=O)c2ccncc2)[C@H](Cc2ccccc2)[C@H](O)[C@@H](O)[C@H]1Cc1ccccc1)c1ccncc1 | 9900 nM | 16 nM | – |
| O=C1N(CCCCO)[C@H](Cc2ccccc2)[C@H](O)[C@@H](O)[C@@H](Cc2ccccc2)N1CCCCO | 22700 nM | 42 nM | – |
| O=C1N(CCCCCO)[C@H](Cc2ccccc2)[C@H](O)[C@@H](O)[C@@H](Cc2ccccc2)N1CC1CC1 | 814 nM | 0.99 nM | – |
| O=C(NCCCCCN1C(=O)N(CCCCCNC(=O)c2cccc(F)c2)[C@H](Cc2ccccc2)[C@H](O)[C@@H](O)[C@H]1Cc1ccccc1)c1cccc(F)c1 | 8770 nM | 14 nM | – |
| O=C1N(CCCCCCCO)[C@H](Cc2ccccc2)[C@H](O)[C@@H](O)[C@@H](Cc2ccccc2)N1CCCCCCCO | 9010 nM | 34 nM | – |
| COC(=O)CCCCCN1C(=O)N(CCCCCC(=O)OC)[C@H](Cc2ccccc2)[C@H](O)[C@@H](O)[C@H]1Cc1ccccc1 | 30900 nM | 29 nM | – |
| O=C1N(CCCCCO)[C@H](Cc2ccccc2)[C@H](O)[C@@H](O)[C@@H](Cc2ccccc2)N1CCCCCO | 953 nM | 1.4 nM | – |
